# Test results from patent US10406169B2, “Methods of monitoring estriol therapy” (The Regents of the University of California, priority 2015, dated 2019).
# Experiment: Safety and adverse events
# Type: in vivo, human
# Text: On study blood tests included complete blood count (CBC) with differential and platelets; chemistry panel including sodium, potassium, creatinine, BUN, glucose, total protein, albumin, bilirubin (total), alkaline phosphatase, AST (SGOT), and ALT (SGPT), and lipid profile (HDL, LDL and triglycerides, cholesterol. […] Adverse event analysis was based on the percentage of patients who discontinued the study and the percentage of patients who discontinued the study possibly due to adverse events.
substance,measurement,setting,value
glatiramer acetate [Placebo + GA],Fibrocystic disease on clinical exam - %,Breast,(5) %
same,Fibrocystic disease on clinical exam - no.,Breast,4
same,Mammogram with malignancy - no.,Breast,0
same,"Breast adverse events, # of patients",Completed,[5]
same,"Breast adverse events, number of events",Completed,5
same,"Cardiovascular adverse events, # of patients",Completed,[8]
same,"Cardiovascular adverse events, number of events",Completed,8
same,"Extremity adverse events, # of patients",Completed,[21]
same,"Extremity adverse events, number of events",Completed,43
same,"GA related? adverse events, # of patients",Completed,[11]
same,"GA related? adverse events, number of events",Completed,22
same,"GI adverse events, # of patients",Completed,[15]
same,"GI adverse events, number of events",Completed,19
same,"GU adverse events, # of patients",Completed,[10]
same,"GU adverse events, number of events",Completed,17
same,"GYN adverse events, # of patients",Completed,[15]
same,"GYN adverse events, number of events",Completed,18
same,"General adverse events, # of patients",Completed,[26]
same,"General adverse events, number of events",Completed,48
same,"Head/Neck adverse events, # of patients",Completed,[26]
same,"Head/Neck adverse events, number of events",Completed,42
same,"Lymph adverse events, # of patients",Completed,[1]
same,"Lymph adverse events, number of events",Completed,1
same,"MRI related adverse events, # of patients",Completed,[2]
same,"MRI related adverse events, number of events",Completed,3
same,"Menses adverse events, # of patients",Completed,[10]
same,"Menses adverse events, number of events",Completed,14
same,"Mental adverse events, # of patients",Completed,[10]
same,"Mental adverse events, number of events",Completed,14
same,"Neurology adverse events, # of patients",Completed,[9]
same,"Neurology adverse events, number of events",Completed,13
same,"Respiratory adverse events, # of patients",Completed,[26]
same,"Respiratory adverse events, number of events",Completed,47
same,"Skeleton adverse events, # of patients",Completed,[1]
same,"Skeleton adverse events, number of events",Completed,2
same,"Skin adverse events, # of patients",Completed,[10]
same,"Skin adverse events, number of events",Completed,15
same,"Total adverse events, # of patients",Completed,[53]
same,"Total adverse events, number of events",Completed,331
same,"Cancer adverse events, # of patients",Discontinued,[1]
same,"Cancer adverse events, number of events",Discontinued,1
same,"Extremity adverse events, # of patients",Discontinued,[2]
same,"Extremity adverse events, number of events",Discontinued,4
same,"GA related? adverse events, # of patients",Discontinued,[4]
same,"GA related? adverse events, number of events",Discontinued,10
same,"GI adverse events, # of patients",Discontinued,[3]
same,"GI adverse events, number of events",Discontinued,3
same,"GU adverse events, # of patients",Discontinued,[3]
same,"GU adverse events, number of events",Discontinued,3
same,"GYN adverse events, # of patients",Discontinued,[3]
same,"GYN adverse events, number of events",Discontinued,3
same,"General adverse events, # of patients",Discontinued,[6]
same,"General adverse events, number of events",Discontinued,9
same,"Head/Neck adverse events, # of patients",Discontinued,[4]
same,"Head/Neck adverse events, number of events",Discontinued,9
same,"Lymph adverse events, # of patients",Discontinued,[1]
same,"Lymph adverse events, number of events",Discontinued,1
same,"Menses adverse events, # of patients",Discontinued,[2]
same,"Menses adverse events, number of events",Discontinued,3
same,"Mental adverse events, # of patients",Discontinued,[5]
same,"Mental adverse events, number of events",Discontinued,5
same,"Neurology adverse events, # of patients",Discontinued,[1]
same,"Neurology adverse events, number of events",Discontinued,1
same,"Respiratory adverse events, # of patients",Discontinued,[3]
same,"Respiratory adverse events, number of events",Discontinued,7
same,"Skin adverse events, # of patients",Discontinued,[2]
same,"Skin adverse events, number of events",Discontinued,2
same,"Total adverse events, # of patients",Discontinued,[13]
same,"Total adverse events, number of events",Discontinued,61
same,Abnormal proliferation on biopsy - no.,Uterus,0
same,Endometrial biopsies performed - %,Uterus,(8) %
same,Endometrial biopsies performed - no.,Uterus,6
same,Endometrial thickness >8 mm (ultrasound) - %,Uterus,(36) %
same,Endometrial thickness >8 mm (ultrasound) - no.,Uterus,27
same,Fibroids (ultrasound) - %,Uterus,(11) %
same,Fibroids (ultrasound) - no.,Uterus,8
same,Adverse events leading to discontinuation - %,in vivo,(6%)
same,Adverse events leading to discontinuation - no.,in vivo,5
same,Any adverse event - % of pts,in vivo,87%
same,Any adverse event - no of pts,in vivo,67
same,Any adverse event - no. of events,in vivo,392
same,"Arm/leg numbness, tingling - % of pts",in vivo,9%
same,"Arm/leg numbness, tingling - no of pts",in vivo,7
same,"Arm/leg numbness, tingling - no. of events",in vivo,10
same,Back pain - % of pts,in vivo,6%
same,Back pain - no of pts,in vivo,5
same,Back pain - no. of events,in vivo,5
same,Copaxone injection area abnormalities - % of pts,in vivo,18%
same,Copaxone injection area abnormalities - no of pts,in vivo,14
same,Copaxone injection area abnormalities - no. of events,in vivo,30
same,Depression/anxiety - % of pts,in vivo,12%
same,Depression/anxiety - no of pts,in vivo,9
same,Depression/anxiety - no. of events,in vivo,10
same,Dizziness - % of pts,in vivo,9%
same,Dizziness - no of pts,in vivo,7
same,Dizziness - no. of events,in vivo,10
same,Fatigue - % of pts,in vivo,10%
same,Fatigue - no of pts,in vivo,8
same,Fatigue - no. of events,in vivo,10
same,Gastroenteritis - % of pts,in vivo,4%
same,Gastroenteritis - no of pts,in vivo,3
same,Gastroenteritis - no. of events,in vivo,4
same,Headache - % of pts,in vivo,14%
same,Headache - no of pts,in vivo,11
same,Headache - no. of events,in vivo,12
same,Heart palpitation - % of pts,in vivo,5%
same,Heart palpitation - no of pts,in vivo,4
same,Heart palpitation - no. of events,in vivo,4
same,Insomnia - % of pts,in vivo,5%
same,Insomnia - no of pts,in vivo,4
same,Insomnia - no. of events,in vivo,4
same,Irregular menses/spotting - % of pts,in vivo,4%
same,Irregular menses/spotting - no of pts,in vivo,3
same,Irregular menses/spotting - no. of events,in vivo,4
same,Menstrual cramp - % of pts,in vivo,5%
same,Menstrual cramp - no of pts,in vivo,4
same,Menstrual cramp - no. of events,in vivo,5
same,Menstrual flow amount increased - % of pts,in vivo,8%
same,Menstrual flow amount increased - no of pts,in vivo,6
same,Menstrual flow amount increased - no. of events,in vivo,8
same,Nausea/vomiting - % of pts,in vivo,6%
same,Nausea/vomiting - no of pts,in vivo,5
same,Nausea/vomiting - no. of events,in vivo,5
same,Severe adverse events - % of pts,in vivo,13%
same,Severe adverse events - no of pts,in vivo,10
same,Severe adverse events - no. of events,in vivo,12
same,Shingles - % of pts,in vivo,5%
same,Shingles - no of pts,in vivo,4
same,Shingles - no. of events,in vivo,4
same,Sinusitis - % of pts,in vivo,13%
same,Sinusitis - no of pts,in vivo,10
same,Sinusitis - no. of events,in vivo,14
same,Upper respiratory infection - % of pts,in vivo,34%
same,Upper respiratory infection - no of pts,in vivo,26
same,Upper respiratory infection - no. of events,in vivo,38
same,Urinary tract infection - % of pts,in vivo,13%
same,Urinary tract infection - no of pts,in vivo,10
same,Urinary tract infection - no. of events,in vivo,16
same,Vaginal infection - % of pts,in vivo,10%
same,Vaginal infection - no of pts,in vivo,8
same,Vaginal infection - no. of events,in vivo,9
same,"Vision problem (blurry, double) - % of pts",in vivo,9%
same,"Vision problem (blurry, double) - no of pts",in vivo,7
same,"Vision problem (blurry, double) - no. of events",in vivo,7
same,Accidently took other's drug - % of pts,severe adverse event,"[1, 1%]"
same,Accidently took other's drug - no of pts,severe adverse event,"[1, 1%]"
same,Accidently took other's drug - no. of events,severe adverse event,1
same,Acute appendicitis - % of pts,severe adverse event,"[1, 1%]"
same,Acute appendicitis - no of pts,severe adverse event,"[1, 1%]"
same,Acute appendicitis - no. of events,severe adverse event,1
same,B-cell lymphoma - % of pts,severe adverse event,"[1, 1%]"
same,B-cell lymphoma - no of pts,severe adverse event,"[1, 1%]"
same,B-cell lymphoma - no. of events,severe adverse event,1
same,Car accident related body numbness - % of pts,severe adverse event,"[1, 1%]"
same,Car accident related body numbness - no of pts,severe adverse event,"[1, 1%]"
same,Car accident related body numbness - no. of events,severe adverse event,1
same,Heart failure - no. of events,severe adverse event,0
same,MS relapse - % of pts,severe adverse event,6%
same,MS relapse - no of pts,severe adverse event,5
same,MS relapse - no. of events,severe adverse event,6
same,Migraine headache related eye pain - no. of events,severe adverse event,0
same,Pace maker implantation - no. of events,severe adverse event,0
same,Pregnancy termination - no. of events,severe adverse event,0
same,Pyelonephritis - no. of events,severe adverse event,0
same,Right knee replacement - % of pts,severe adverse event,"[1, 1%]"
same,Right knee replacement - no of pts,severe adverse event,"[1, 1%]"
same,Right knee replacement - no. of events,severe adverse event,1
same,Systolic heart failure - no. of events,severe adverse event,0
same,UTI - % of pts,severe adverse event,"[1, 1%]"
same,UTI - no of pts,severe adverse event,"[1, 1%]"
same,UTI - no. of events,severe adverse event,1
